# In patent US9073917B2, “Anti-cancer compound and pharmaceutical composition containing the same” (SANOFI, priority 2009, dated 2015):
# Read-outs that look alike come from different tables or passages of the source.
# How the values were obtained:
# tumour cell line HeLa = experiment: Cell proliferation, 14C-thymidine incorporation, HeLa; type: cell-based
# Source text: Measurement of the Cell Proliferation
# Aurora B/Incenp = Aurora B/Incenp (Homo sapiens (Human), UniProt Q96GD4); experiment: Aurora B/Incenp kinase activity, radioactive 33P incorporation into NuMA fragment
# Method: (§3) The kinase activity is measured by a radioactive assay of the amount of radioactive phosphate (^33P) incorporated into a fragment of the protein NuMA (Nuclear Mitotic Apparatus protein) after 30 minutes of incubation at 37° C. […] In each plate, there are eight control wells: four positive controls (maximum kinase activity), for which measurement is made in the presence of enzyme and substrate and in the absence of compound of the invention, and four negative controls (background) for which measurement is made in the absence of enzyme, substrate and test compound.
# The two proteins form a complex which is called Aurora B/Incenp. […] This fragment is used as substrate.
# [1] = Metabolism in the presence of human microsomal liver fractions; type: in vitro ADME; settings: percentage disappearance, 5 μM, 20 minutes; for Human microsome: 1 mg/ml proteins, NADPH
# Method: (§1) Evaluation of the Metabolism in the Presence of Microsomal Preparations of Human and Murine Livers.
# (§2) The compounds of the invention (5 μM) are incubated at physiological temperature over human and murine microsomal liver fractions (1 mg/ml of proteins), diluted in a phosphate buffer, in the presence of bovine serum albumin (1 mg/ml BSA), and the reduced form of nicotinamide adenine dinucleotide phosphate (1 mM NADPH). To terminate incubation, four volumes of acetonitrile containing corticosterone as internal standard (IS) are added. The samples are centrifuged and the supernatants are analysed by liquid chromatography/tandem mass spectrometry coupling (LC/MS-MS). The LC/MS-MS analysis is performed on a QTRAP API4000 mass spectrometer (Sciex) equipped with an 1100 series chromatography system (Agilent) and a Pal CTC automatic injector. The data are acquired and analysed using Analyst 1.4.1 software. The samples are separated on a 3 μm C18 Polaris column, eluted at a flow rate of 0.7 ml/min with a gradient from acetonitrile (solvent B) into water containing 0.1% formic acid (solvent A). The elution programme is composed of the gradient from 20 to 90% of solvent B in 2 minutes, an isocratic stage at 90% of solvent B, for 0.9 minute, and a return to the initial conditions in 0.1 minute. The area of the chromatographic peaks for the compound and for the internal standard are integrated using the Analyst-Classic algorithm. The metabolic stability of the products of the invention is estimated by comparing the integration ratios (ion currents of the compounds/ion current IS) measured after 0 minute (t0) and 20 minutes (t20) of incubation. The metabolic stability is then expressed as a percentage disappearance in accordance with the following formula: Metabolism %=(ratio of peaks at t0−ratio of peaks at t20)/ratio of peaks at t0
# [2] = Metabolism in the presence of murine microsomal liver fractions; type: in vitro ADME; settings: percentage disappearance, 5 μM, 20 minutes; for Mouse microsome: 1 mg/ml proteins, NADPH
# Method: as §1, §2
# PDE3A = PDE3A (Homo sapiens (Human), UniProt Q14432); experiment: Effect on the activity of the enzyme PDE3 (CEREP, HTRF); settings: for IC50: read-out: IC50 PDE3, recombinant PDE3A, substrate cAMP; for inhibition at 1 µM: read-out: PDE3 inhibition at 1000 nM
# Source text: Evaluation of the Effect of the Compounds of the Invention on the Activity of the Enzyme PDE3
# [3] = Clearance in the presence of human hepatocytes; type: in vitro ADME; settings: 0.5 or 5 μM, 24 hours, average over different preparations of hepatocytes
# Method: The LC/MS-MS analysis is performed on a QTRAP API4000 mass spectrometer (Sciex) equipped with an 1100 series chromatography system (Agilent) and a Pal CTC automatic injector. The data are acquired and analysed using Analyst 1.4.1 software. The samples are separated on a 3 μm C18 Polaris column, eluted at a flow rate of 0.7 ml/min with a gradient from acetonitrile (solvent B) into water containing 0.1% formic acid (solvent A). The elution programme is composed of the gradient from 20 to 90% of solvent B in 2 minutes, an isocratic stage at 90% of solvent B, for 0.9 minute, and a return to the initial conditions in 0.1 minute.
# HCT116 [4] = settings: read-out: IC50 HCT116; HCT116, 96 hours treatment
# Method: (§4) The cell proliferation is estimated by the amount of ^14C-thymidine incorporated in the cells.
# (§5) D0: the cells are seeded in 96-well Cytostar plates in 180 μL of culture medium. The plates are then placed in an incubator at 37° C., 5% CO2 for four hours. The test products are then added in a volume of 10 μL per well, starting from a 20× solution. This solution contains 2% of DMSO in the culture medium. The final concentration of DMSO is therefore 0.1%. The plates are then placed in an incubator at 37° C./5% CO2 for 72 hours. D3: after 72 hours, 10 μL per well of ^14C-thymidine at 10 μCi/mL in the culture medium are added. The plates are then placed in an incubator at 37° C., 5% CO2 for 24 hours. D4: The incorporation of ^14C thymidine is measured on a Micro-Beta radioactivity counter (Perkin-Elmer) after this 24-hour, “pulse” period. The total time of treatment of the cells with the test product is 96 hours.
# (§6) The percentage inhibitions IC50 are calculated in Excel using the following formula:
# (§7) [formula] X=Measurement for the Sample CC=Cell Control Blank=Measurement in the wells without cells
# [5] = Chemical stability in various media (HPLC); type: physicochemical; settings: 100 μM, 20° C., 48 hours
# Method: Measurement of the Chemical Stability of the Compounds
# The compounds are diluted in the media under study at a final concentration of 100 μM, by dilution of a 10 mM stock solution in DMSO. The solutions are stored at 20° C. for a total time of 48 hours, and the concentration of the compounds under study is measured over time (t=0, 1, 6, 12, 24 and 48 hours) by HPLC. HPLC analysis is carried out with an Agilent system 1100 instrument equipped with a diode array detector on a Luna 018 column, 30×4.6 mm, 3 μm (Phenomenex) which is eluted with a gradient from acetonitrile (solvent B) into water containing 0.5% (v/v) of formic acid (solvent A) at a flow rate of 1.5 ml/min and a temperature of 25° C. The elution programme consists of a gradient from 10 to 90% solvent B in 5 minutes, followed by an isocratic stage of one minute at 90% of solvent B, and return to the initial conditions over one minute. The concentration of the products under study is estimated from the height and area of the characteristic peak of the product under study on a chromatogram at the maximum wavelength of each product. The area and the height measured at each time of sampling are related to the area and height obtained for the sample at time 0. When degradation is observed, a half-life is measured from the resulting time-concentration curve.
# Aurora A = Aurora A (Homo sapiens (Human), UniProt O14965); experiment: Aurora A kinase activity, radioactive 33P incorporation into NuMA fragment
# Method: as §3
# The recombinant human enzyme Aurora A used is expressed in entire form with a poly-Histidine tag in N-terminal position and is produced in E. coli.
# HCT116 [6] = experiment: cells; settings: Homo sapiens, HCT-116, 96 h, read-out: IC50 HCT116
# Method: as §4, §5, §6, §7
# [7] = Homo sapiens, 96 h, read-out: IC50 HeLa
# [8] = read-out: IC50 Aurora A, 10 nM Aurora A, 1 μM ATP, 500 nM NuMA, 30 min at 37° C.
# [9] = Homo sapiens, 96 hours treatment, read-out: IC50 HeLa (converted)
# PDE3A, sequence (Q14432 whole entry): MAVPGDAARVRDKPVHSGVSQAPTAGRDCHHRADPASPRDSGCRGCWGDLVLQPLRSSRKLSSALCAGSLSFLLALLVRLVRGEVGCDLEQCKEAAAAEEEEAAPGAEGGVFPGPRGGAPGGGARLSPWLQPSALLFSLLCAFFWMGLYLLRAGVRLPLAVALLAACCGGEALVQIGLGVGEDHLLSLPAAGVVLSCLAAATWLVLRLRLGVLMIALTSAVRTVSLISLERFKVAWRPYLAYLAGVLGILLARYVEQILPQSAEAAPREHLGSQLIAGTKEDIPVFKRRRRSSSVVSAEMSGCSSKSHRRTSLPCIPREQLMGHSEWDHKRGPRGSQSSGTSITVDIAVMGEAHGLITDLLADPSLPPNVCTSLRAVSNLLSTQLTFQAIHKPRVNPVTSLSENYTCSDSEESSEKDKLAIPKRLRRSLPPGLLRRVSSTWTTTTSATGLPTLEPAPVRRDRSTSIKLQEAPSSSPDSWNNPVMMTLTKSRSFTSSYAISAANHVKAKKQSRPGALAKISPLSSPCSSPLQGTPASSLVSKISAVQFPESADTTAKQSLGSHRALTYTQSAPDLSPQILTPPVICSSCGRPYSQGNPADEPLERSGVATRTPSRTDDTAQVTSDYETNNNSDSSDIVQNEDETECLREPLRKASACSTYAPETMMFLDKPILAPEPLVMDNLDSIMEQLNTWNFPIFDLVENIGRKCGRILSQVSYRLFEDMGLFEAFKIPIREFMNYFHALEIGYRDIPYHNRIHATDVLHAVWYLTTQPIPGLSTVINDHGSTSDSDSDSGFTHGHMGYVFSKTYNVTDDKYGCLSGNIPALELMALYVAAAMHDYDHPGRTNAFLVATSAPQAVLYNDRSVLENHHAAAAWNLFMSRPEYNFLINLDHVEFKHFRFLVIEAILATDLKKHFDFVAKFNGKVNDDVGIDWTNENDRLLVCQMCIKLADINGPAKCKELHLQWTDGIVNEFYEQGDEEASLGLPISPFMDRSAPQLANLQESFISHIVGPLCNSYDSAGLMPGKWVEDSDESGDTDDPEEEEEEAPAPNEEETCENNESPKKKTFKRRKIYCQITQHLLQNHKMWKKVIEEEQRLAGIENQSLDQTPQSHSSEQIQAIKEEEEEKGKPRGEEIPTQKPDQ
# Aurora B/Incenp, sequence (Q96GD4 whole entry, the tested form may be a part): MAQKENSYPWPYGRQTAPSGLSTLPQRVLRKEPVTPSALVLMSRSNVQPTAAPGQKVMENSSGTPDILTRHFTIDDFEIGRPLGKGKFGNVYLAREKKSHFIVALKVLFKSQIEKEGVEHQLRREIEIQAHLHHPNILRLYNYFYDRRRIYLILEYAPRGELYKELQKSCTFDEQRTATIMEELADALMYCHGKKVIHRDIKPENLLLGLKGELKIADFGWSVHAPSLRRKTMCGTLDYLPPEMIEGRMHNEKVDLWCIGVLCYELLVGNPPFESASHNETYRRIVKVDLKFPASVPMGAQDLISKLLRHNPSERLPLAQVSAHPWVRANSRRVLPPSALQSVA
# Aurora B/Incenp, sequence (Q9NQS7 821-918 partner): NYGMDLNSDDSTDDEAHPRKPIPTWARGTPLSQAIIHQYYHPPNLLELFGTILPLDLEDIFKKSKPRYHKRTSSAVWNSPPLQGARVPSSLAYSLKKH
# Aurora A, sequence (O14965 whole entry, the tested form may be a part): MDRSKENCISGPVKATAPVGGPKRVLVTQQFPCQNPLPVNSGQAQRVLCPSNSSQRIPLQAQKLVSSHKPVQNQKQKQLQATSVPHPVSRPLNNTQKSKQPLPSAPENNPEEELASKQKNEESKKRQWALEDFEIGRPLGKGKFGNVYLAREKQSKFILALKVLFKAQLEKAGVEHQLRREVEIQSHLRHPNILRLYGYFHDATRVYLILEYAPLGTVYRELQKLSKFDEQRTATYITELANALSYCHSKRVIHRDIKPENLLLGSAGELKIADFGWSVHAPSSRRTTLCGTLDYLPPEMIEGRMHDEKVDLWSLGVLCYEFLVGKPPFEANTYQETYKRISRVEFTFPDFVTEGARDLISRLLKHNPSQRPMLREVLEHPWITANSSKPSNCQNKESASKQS
Structure (SMILES),IC50 (tumour cell line HeLa; [7]) [nM],IC50 (Aurora B/Incenp) [nM],Human microsome [1] [%],Mouse microsome [2] [%],IC50 (tumour cell line HeLa; [9]) [nM],other results
O=C1CNCC2=C1C(c1cccc(Oc3nc4ccccc4[nH]3)c1)c1c[nH]nc1N2 (stereo not shown) [Example 6],> 10000,13,–,–,–,–
CCOC(=O)c1[nH]cc2c1NC1=C(C(=O)CCC1)C2c1cccc(Sc2nc3ccccc3[nH]2)c1 (stereo not shown) [Example 4],9660,6,77,67,–,–
"CCOC(=O)c1[nH]cc2c1NC1=C(C(=O)CCC1)C2c1cccc(Oc2nc3ccccc3[nH]2)c1 (stereo not shown) [Example 2, ethyl 8-oxo-9-[3-(1H-benzimidazol-2-yloxy)phenyl]-4,5,6,7,8,9-hexahydro-2H-pyrrole[3,4-b]quinoline-3-carboxylate]",–,–,32,50,–,"Metabolism measured in the presence of human microsomal fraction [1]: 32%; IC50 (PDE3A): 4000 nM; Intrinsic clearance measured in the presence of human hepatocytes [3]: 0.121 (average of 5 determinations obtained with 5 ml · h^−1 · 10^−6 cells; IC50 (HCT116 [4]): 20 nM; Metabolism measured in the presence of murine microsomal fraction [2]: 50%; IC50 (tumour cell line HeLa; 96 hours treatment, read-out: IC50 HeLa (converted)): 67 nM; IC50 (Aurora B/Incenp; read-out: IC50 Aurora B/Incenp): 1 nM; Chemical stability, HCl 0.05N 50/50 water/acetonitrile [5]: stable; Chemical stability, NaOH 0.05N 50/50 water/acetonitrile [5]: stable; Chemical stability, Phosphate buffer 25 mM pH = 7.4 50/50 water/acetonitrile [5]: stable; Chemical stability, Phosphate buffer 25 mM pH = 7.4 + 1% 2-mercaptoethanol 50/50 water/acetonitrile [5]: stable; Chemical stability, Phosphate buffer 25 mM pH = 7.4 + 1% benzylamine 50/50 water/acetonitrile [5]: stable"
O=C1CCCC2=C1C(c1cccc(Oc3nc4ccccc4[nH]3)c1)c1c[nH]nc1N2 (stereo not shown) [Example 5],–,6,–,–,9630,IC50 (Aurora A; [8]): 23 nM
CCOC(=O)c1[nH]cc2c1NC1=C(C(=O)CC(C)(C)C1)C2c1cccc(Sc2nc3ccccc3[nH]2)c1 (stereo not shown) [Example 8],–,21,80,84,6860,IC50 (Aurora A): 102 nM
CCOC(=O)c1[nH]cc2c1NC1=C(C(=O)CCC1)C2c1ccc(Sc2nc3cccc(OC)c3[nH]2)o1 (stereo not shown) [Example 13],–,10,53,74,20,inhibition at 1 µM (PDE3A): 93%
CCOC(=O)c1[nH]cc2c1NC1=C(C(=O)CCC1)[C@@H]2c1ccc(Sc2nc3ccccc3[nH]2)o1 [Example 12],16,–,75,81,–,"Metabolism measured in the presence of human microsomal fraction [1]: 75%; IC50 (HCT116 [6]): 1 nM; IC50 (PDE3A): 68 nM; Intrinsic clearance measured in the presence of human hepatocytes [3]: 0.29 (average of 3 determinations obtained with 3 ml · h^−1 · 10^−6 cells; Metabolism measured in the presence of murine microsomal fraction [2]: 81%; Chemical stability, HCl 0.05N 50/50 water/acetonitrile [5]: stable; Chemical stability, NaOH 0.05N 50/50 water/acetonitrile [5]: stable; Chemical stability, Phosphate buffer 25 mM pH = 7.4 50/50 water/acetonitrile [5]: stable; Chemical stability, Phosphate buffer 25 mM pH = 7.4 + 1% 2-mercaptoethanol 50/50 water/acetonitrile [5]: unstable; Chemical stability, Phosphate buffer 25 mM pH = 7.4 + 1% benzylamine 50/50 water/acetonitrile [5]: stable"
CCOC(=O)c1[nH]cc2c1NC1=C(C(=O)CC(C)(C)C1)C2c1cccc(Oc2nc3ccccc3[nH]2)c1 (stereo not shown) [Example 7],–,4,65,96,430,IC50 (Aurora A): 3 nM
CC1(C)CC(=O)C2=C(C1)Nc1n[nH]cc1C2c1cccc(Oc2nc3ccccc3[nH]2)c1 (stereo not shown) [Example 10],–,9,–,–,6690,IC50 (Aurora A; [8]): 22 nM
"CCOC(=O)c1[nH]cc2c1NC1=C(C(=O)CCC1)C2c1cccc(Oc2nc3ccccc3[nH]2)c1 (single isomer, unassigned) [Example 3, ethyl 8-oxo-9-[3-(1H-benzimidazol-2-yloxy)phenyl]-4,5,6,7,8,9-hexahydro-2H-pyrrolo[3,4-b]quinoline-3-carboxylate]",> 10000,900,–,–,–,–
"CCOC(=O)c1[nH]cc2c1NC1=C(C(=O)CCC1)C2c1cccc(Oc2nc3ccccc3[nH]2)c1 (racemic) [Example 1, ethyl 8-oxo-9-[3-(1H-benzimidazol-2-yloxy)phenyl]-4,5,6,7,8,9-hexahydro-2H-pyrrolo[3,4-b]quinoline-3-carboxylate]",205,4,37,31,–,inhibition at 1 µM (PDE3A): 78%
